Experimental data: patent US8293790B2, “Pharmaceutical compositions comprising DGLA and benzoyl peroxide and methods of use thereof” (Dignity Sciences Limited, priority 2011, dated 2012)
In brackets after ≈: the same amount, converted by molar mass. Read-outs that look alike come from different tables or passages of the source. Marks after values point to notes of the source that are not given here.

Experiments:
P. acnes [1] = assay: Agar dilution method: growth of P. acnes and MIC, compounds tested singly; format: cell-based, Propionibacterium acnes; set-up: key to Growth Index (+++, ++, +, −) Plate 1 / Growth Index (+++, ++, +, −) Plate 2 / Growth Index (+++, ++, +, −) Plate 3 / Growth Index (+++, ++, +, −) Avg: +++: confluent growth (comparable to control); ++: less confluent growth; +: marked reduction in growth to multiple tiny, single colonies; −: no growth present; MIC: unit: mg/mL; details: for MIC: compound alone
Protocol: (§1) Several compounds including fatty acids such as DGLA, 15-OHEPA, and 15-HETrE were tested to determine their capacity to inhibit the growth of P. acnes. In an exemplary method, an agar dilution method was used to determine the minimum inhibitory concentration (MIC) of each tested compound. Briefly, the agar dilution method involved preparing a series of concentrations of each compound (e.g., nicotinamide, benzoyl peroxide, adapalene, metronidazole, DGLA, 15-OHEPA, and 15-HETrE) in a Reinforced Clostridial Agar (RCA) media that facilitates growth of P. acnes under anaerobic conditions. An inoculum of P. acnes was prepared by incubation of P. acnes for approximately seven days at 35-37° C. to achieve a ≧1.0 OD600 inoculum of P. acnes in RCM broth. A portion of this inoculum was then added to the surface of each plate as a 10 μL spot and incubated at 35-37° C. for 72 hours or more. Growth of P. acnes was then observed and compared to control plates in which no compound has been added, and positive inhibition plates prepared with erythromycin. […] The growth of P. acnes in the presence of nicotinamide, benzoyl peroxide, adapalene, metronidazole, DGLA, 15-OHEPA, and 15-HETrE was determined with varying concentrations of the compound (see, Table 2). Next, the MIC was determined as the concentration at which a marked reduction (+) occurs in the appearance of growth on the test plate (as per Clinical and Laboratory Standards Institute M11-A7).

P. acnes [2] = assay: Agar dilution method: growth of P. acnes and MIC, fatty acid compounds in combination with other compounds; format: cell-based, Propionibacterium acnes; details: for MIC (mg/mL) with 0.05 mg/mL 15-HETrE spike / MIC (mg/mL) with 0.1 mg/mL 15-OHEPA spike: itself an inhibitory concentration
Protocol: as §1, with “M11-A7). The compounds tested singly in Example 1 were tested in combination with one another to determine the capacity of the combination to inhibit the growth of P. acnes. In an exemplary method, the MIC was determined for each of the combination as described in Example 1. Briefly, test combinations included DGLA with nicotinamide, benzoyl peroxide, adapalene, or metronidazole; 15-HETrE with nicotinamide, benzoyl peroxide, adapalene, or metronidazole; and 15-OHEPA with nicotinamide, benzoyl peroxide, adapalene, or metronidazole. The tables below show the growth of P. acnes in the presence of 0.4 or 1.0 mg/mL DGLA with varying concentrations of nicotinamide, benzoyl peroxide, adapalene, or metronidazole (Table 3); the growth of P. acnes in the presence of 0.01 or 0.05 mg/mL 15-HETrE with varying concentrations of nicotinamide, benzoyl peroxide, adapalene, or metronidazole (Table 5); and the growth of P. acnes in the presence of 0.5 or 0.1 mg/mL 15-OHEPA with varying concentrations of nicotinamide, benzoyl peroxide, adapalene, or metronidazole (Table 7).” for “M11-A7).”

[3] = Cutibacterium acnes, MIC = concentration with marked reduction (+) of growth, read-out: MIC (mg/mL) as per P-11-0007 or P-11-0008 Addendum A
[4] = compound at 0.010 mg/mL in agar
[5] = compound at 0.025 mg/mL in agar
[6] = compound at 0.050 mg/mL in agar
[7] = compound at 0.075 mg/mL in agar

CCC=CCC(O)C=CC=CCC=CCC=CCCCC(=O)O (centres unmarked) [15-OHEPA, 15-Hydroxy-eicosa-5,8,11,13,17-pentaenoic acid]
effect on growth of P. acnes on its own (P. acnes [1]; 0.05 mg/mL): no effect on its own
MIC (P. acnes [1]; [3]): 0.05 to 0.075 mg/mL (≈ 157 to 236 µM)
Growth Index (+++, ++, +, −) Avg (P. acnes [1]; [4]): +++
Growth Index (+++, ++, +, −) Plate 1 (P. acnes [1]; [4]): +++
Growth Index (+++, ++, +, −) Plate 2 (P. acnes [1]; [4]): +++
Growth Index (+++, ++, +, −) Plate 3 (P. acnes [1]; [4]): +++
Growth Index (+++, ++, +, −) Avg (P. acnes [1]; [5]): +++
Growth Index (+++, ++, +, −) Plate 1 (P. acnes [1]; [5]): +++
Growth Index (+++, ++, +, −) Plate 2 (P. acnes [1]; [5]): +++
Growth Index (+++, ++, +, −) Plate 3 (P. acnes [1]; [5]): +++
Growth Index (+++, ++, +, −) Avg (P. acnes [1]; [6]): +++
Growth Index (+++, ++, +, −) Plate 1 (P. acnes [1]; [6]): +++
Growth Index (+++, ++, +, −) Plate 2 (P. acnes [1]; [6]): +++
Growth Index (+++, ++, +, −) Plate 3 (P. acnes [1]; [6]): +++
Growth Index (+++, ++, +, −) Avg (P. acnes [1]; [7]): +
Growth Index (+++, ++, +, −) Plate 1 (P. acnes [1]; [7]): +
Growth Index (+++, ++, +, −) Plate 2 (P. acnes [1]; [7]): +
Growth Index (+++, ++, +, −) Plate 3 (P. acnes [1]; [7]): +

NC(=O)c1cccnc1 [Nicotinamide]
MIC (mg/mL) with 0.05 mg/mL 15-HETrE spike (P. acnes [2]): <1 mg/mL
MIC (mg/mL) with 0.1 mg/mL 15-OHEPA spike (P. acnes [2]): <1 mg/mL
growth of P. acnes in combination with 15-HETrE compared with 15-HETrE alone (P. acnes [2]; in combination with 15-HETrE): did not reduce the growth of P. Acnes below that of 15-HETrE used alone
growth of P. acnes in combination with 15-OHEPA compared with 15-OHEPA alone (P. acnes [2]): did not reduce the growth of P. Acnes below that of 15 OHEPA used alone
growth of P. acnes in combination with DGLA compared with DGLA alone (P. acnes [2]): did not reduce the growth of P. Acnes below that of DGLA used alone
MIC (P. acnes [1]; [3]): 10 to 15 mg/mL (≈ 81900 to 123000 µM)
Growth Index (+++, ++, +, −) Avg (P. acnes [1]; compound at 1 mg/mL in agar): +++
Growth Index (+++, ++, +, −) Plate 1 (P. acnes [1]; compound at 1 mg/mL in agar): +++
Growth Index (+++, ++, +, −) Plate 2 (P. acnes [1]; compound at 1 mg/mL in agar): +++
Growth Index (+++, ++, +, −) Plate 3 (P. acnes [1]; compound at 1 mg/mL in agar): +++
Growth Index (+++, ++, +, −) Avg (P. acnes [1]; compound at 5 mg/mL in agar): +++
Growth Index (+++, ++, +, −) Plate 1 (P. acnes [1]; compound at 5 mg/mL in agar): +++
Growth Index (+++, ++, +, −) Plate 2 (P. acnes [1]; compound at 5 mg/mL in agar): +++
Growth Index (+++, ++, +, −) Plate 3 (P. acnes [1]; compound at 5 mg/mL in agar): +++
Growth Index (+++, ++, +, −) Avg (P. acnes [1]; compound at 10 mg/mL in agar): ++
Growth Index (+++, ++, +, −) Plate 1 (P. acnes [1]; compound at 10 mg/mL in agar): ++
Growth Index (+++, ++, +, −) Plate 2 (P. acnes [1]; compound at 10 mg/mL in agar): ++
Growth Index (+++, ++, +, −) Plate 3 (P. acnes [1]; compound at 10 mg/mL in agar): ++
Growth Index (+++, ++, +, −) Avg (P. acnes [1]; compound at 15 mg/mL in agar): +
Growth Index (+++, ++, +, −) Plate 1 (P. acnes [1]; compound at 15 mg/mL in agar): −
Growth Index (+++, ++, +, −) Plate 2 (P. acnes [1]; compound at 15 mg/mL in agar): +
Growth Index (+++, ++, +, −) Plate 3 (P. acnes [1]; compound at 15 mg/mL in agar): +

COc1ccc(-c2ccc3cc(C(=O)O)ccc3c2)cc1C12CC3CC(CC(C3)C1)C2 [Adapalene, 6-[3-(1-adamantyl)-4-methoxyphenyl]-2-naphthoic acid]
MIC (mg/mL) with 0.05 mg/mL 15-HETrE spike (P. acnes [2]): <0.2 mg/mL
MIC (mg/mL) with 0.05 mg/mL 15-OHEPA spike (P. acnes [2]; 0.05 mg/mL 15-OHEPA spike): >0.8 mg/mL
MIC (mg/mL) with 0.1 mg/mL 15-OHEPA spike (P. acnes [2]): <0.2 mg/mL
MIC (mg/mL) with 0.4 mg/mL dGLA spike (P. acnes [2]; 0.4 mg/mL dGLA spike, dGLA supplied by Sigma, cat# E4504): >0.6* mg/mL
MIC (mg/mL) with 1.0 mg/mL dGLA spike (P. acnes [2]; 1.0 mg/mL dGLA spike, dGLA supplied by Cayman, cat# 90230): >0.6* mg/mL
growth of P. acnes in combination with 15-OHEPA compared with 15-OHEPA alone (P. acnes [2]): did not reduce the growth of P. Acnes below that of 15 OHEPA used alone
growth of P. acnes in combination with DGLA compared with DGLA alone (P. acnes [2]): did not reduce the growth of P. Acnes below that of DGLA used alone
MIC (P. acnes [1]; [3]): > 0.8 mg/mL
MIC (P. acnes [1]; no unit in the sentence): > 0.8
Growth Index (+++, ++, +, −) Avg (P. acnes [1]; compound at 0.2 mg/mL in agar): +++
Growth Index (+++, ++, +, −) Plate 1 (P. acnes [1]; compound at 0.2 mg/mL in agar): +++
Growth Index (+++, ++, +, −) Plate 2 (P. acnes [1]; compound at 0.2 mg/mL in agar): +++
Growth Index (+++, ++, +, −) Plate 3 (P. acnes [1]; compound at 0.2 mg/mL in agar): +++
Growth Index (+++, ++, +, −) Avg (P. acnes [1]; compound at 0.4 mg/mL in agar): +++
Growth Index (+++, ++, +, −) Plate 1 (P. acnes [1]; compound at 0.4 mg/mL in agar): +++
Growth Index (+++, ++, +, −) Plate 2 (P. acnes [1]; compound at 0.4 mg/mL in agar): +++
Growth Index (+++, ++, +, −) Plate 3 (P. acnes [1]; compound at 0.4 mg/mL in agar): +++
Growth Index (+++, ++, +, −) Avg (P. acnes [1]; compound at 0.6 mg/mL in agar): ++
Growth Index (+++, ++, +, −) Plate 1 (P. acnes [1]; compound at 0.6 mg/mL in agar): ++
Growth Index (+++, ++, +, −) Plate 2 (P. acnes [1]; compound at 0.6 mg/mL in agar): ++
Growth Index (+++, ++, +, −) Plate 3 (P. acnes [1]; compound at 0.6 mg/mL in agar): +++
Growth Index (+++, ++, +, −) Avg (P. acnes [1]; compound at 0.8 mg/mL in agar): ++
Growth Index (+++, ++, +, −) Plate 1 (P. acnes [1]; compound at 0.8 mg/mL in agar): ++
Growth Index (+++, ++, +, −) Plate 2 (P. acnes [1]; compound at 0.8 mg/mL in agar): ++
Growth Index (+++, ++, +, −) Plate 3 (P. acnes [1]; compound at 0.8 mg/mL in agar): ++
